Measurements: patent US8729051B2, “Tri- and tetra-oligo-saccharides suitable as agglutination agents for enteric pathogens” (Nutrition Sciences N.V./S.A., priority 2006, dated 2014)

How the values were obtained:
[1] = Chicken performance (weight, feed conversion); format: in vivo, chickens; settings: feed with 3 ppm flavomycin or 0.025% oligo-saccharides
Description: 3×40 one day old chickens were provided with following feeds: control feed, control feed supplemented with 3 ppm flavomycin and control feed supplemented with 0.025% tri- and/or tetra-manno-oligo-saccharides. The control feed was a mash feed, composed of raw materials suitable for animal nutrition. Water and feed were supplied ad libitum. The chickens were contaminated at day 2 with caecum contents of 3 week old chickens (most critical period for gastrointestinal problems). At regular time intervals, chickens were dissected and the enteric pathogen contents in the small intestine were determined by plate counting on MacConkey agar.
The same experimental conditions were applied as described in experiment 1. In this example, daily growth and feed conversion were monitored after 13 days.

E. coli K88 cells = experiment: Pathogen agglutination, microscopic analysis; format: cell-based; settings: 0.025%, pH 7.0, 10 minutes; versus xylose, penta- and deca-xylo-oligo-saccharides
Description: Tri and/or tetra-manno-oligo-saccharides were incubated in liquid at a dose of 0.025% at pH 7.0 with E. coli K88 and Lactobacillus amylovorus cells for 10 minutes. After 10 minutes, agglutination was visualised by means of microscopic analysis.

Compound	Feed conversion/chicken ([1]; after 13 days)	Weight/chicken at day 1 ([1]; day 1)	Weight/chicken at day 13 ([1]; day 13)	agglutination, comparison of degree of polymerisation of xylo-oligo-saccharides (E. coli K88 cells)
flavomycin	1.51	43.54	208.8	–
tetra-xylo-oligo-saccharides	–	–	–	best agglutination
OC1OC[C@@H](O[C@@H]2OC[C@@H](O[C@@H]3OC[C@@H](O)[C@H](O)[C@H]3O)[C@H](O)[C@H]2O)[C@H](O)[C@H]1O (some centres unmarked) [tri-xylo-oligo-saccharides]	–	–	–	best agglutination
